How the values were obtained:
in vitro [1] = details: human, microsomes, pH 7.4
in vitro [2] = details: human, microsomes, pH 7.4; remark: listed apart in the source
hepatic fibrosis = details: 50 mg/kg or 100 mg/kg, by increasing phospho-FOXO1 expression; cited from earlier work
Newcastle disease virus = details: cited from earlier work
duck hepatitis B virus = details: in vivo; cited from earlier work
HBV = experiment: Preliminary screening of anti-HBV activity; format: cell-based, hepatitis B virus; details: inhibition of HBsAg and HBeAg expression, HepG2.2.15 cells

With `C[C@]12CC[C@H]3[C@@H](CCC4=CC(=O)CC[C@@]43C)[C@@H]1CC[C@@H]2O` [testosterone, reference compound] the half-life (in vitro [1]) was 0.4 h.

In the case of `Cc1nccn1CCCCCCOc1cc2oc(=O)ccc2cc1O` [Compound 6d, 6-Hydroxyl-7-(6-(2-methylimidazole-1-yl)hexyloxy)-2H-benzopyran-2-one], the half-life (in vitro [1]) is reported as > 5 h and the half-life (in vitro [2]) is reported as > 5 h.

For `O=c1ccc2ccc(O)cc2o1` [7-hydroxycoumarin, reference compound], the half-life (in vitro [2]) was 0.263 h.

In the case of `O=c1ccc2cc(O)c(O)cc2o1` [Esculetin, 6,7-dihydroxy-2-H-1-benzopyran-2-one], the hepatic fibrosis (hepatic fibrosis) is given as “improvement in hepatic fibrosis”, the “Newcastle disease virus replication” value (Newcastle disease virus) is given as “inhibited Newcastle disease virus replication well” and the “levels of HBsAg and HBeAg in duck serum” value (duck hepatitis B virus) is given as “can reduce the levels of HBsAg and hepatitis B e antigen (HBeAg) in duck serum”.

For `Cc1nccn1CCCCOc1cc2oc(=O)ccc2cc1O` [Compound 6b, 6-Hydroxyl-7-(4-(2-methylimidazole-1-yl)butoxy)-2H-benzopyran-2-one], the half-life (in vitro [1]) was > 5 h, the half-life (in vitro [2]) was > 5 h and the “anti-HBV activity (in words)” value (HBV) was “moderate anti-HBV activity”.

With `Cc1nccn1CCCCCOc1cc2oc(=O)ccc2cc1O` [Compound 6c, 6-Hydroxyl-7-(5-(2-methylimidazole-1-yl)pentyloxy)-2H-benzopyran-2-one] the half-life (in vitro [1]) was > 5 h, the half-life (in vitro [2]) was > 5 h and the “anti-HBV activity (in words)” value (HBV) was “moderate anti-HBV activity”.

Reference: PMC10030075 (Medicinal Chemistry Research, 2023)
